Assay results as given in article PMC3806476, “Natural and Semisynthetic Analogues of Manadoperoxide B Reveal New Structural Requirements for Trypanocidal Activity” (Marine Drugs, 2013).
Converted amounts (≈) assume the structure as drawn. “And” between values parts separate entries of the source, which are not always exact repeats. Equal entries are not always repeated. Where two headings read alike, the source gives them in different places.

How the values were obtained:
[1] = tested on: bloodstream forms of Trypanosoma brucei rhodesiense STIB 900 strain; test: Activity against Trypanosoma brucei rhodesiense (resazurin, 72 h); assay type: cell-based; details: for IC50: Trypanosoma brucei
Description: Minimum Essential Medium (50 µL) supplemented with 25 mM HEPES, 1 g/L additional glucose, 1% MEM non-essential amino acids (100×), 0.2 mM 2-mercaptoethanol, 1mM Na-pyruvate and 15% heat inactivated horse serum was added to each well of a 96-well microtiter plate. Serial drug dilutions of eleven 3-fold dilution steps covering a range from 100 to 0.002 μg/mL were prepared. Then 4 × 10^4 bloodstream forms of STIB 900 strain (the stock was isolated in 1982 from a human patient in Tanzania and after several mouse passages was cloned and adapted to axenic culture conditions) of T. b. rhodesiense in 50 μL was added to each well and the plate incubated at 37 °C under a 5% CO2 atmosphere for 72 h. 10 µL of a resazurin solution (prepared dissolving 12.5 mg resazurin in 100 mL double distilled water) was then added to each well and incubation continued for a further 2–4 h. Then the plates were read in a Spectramax Gemini XS microplate fluorometer (Molecular Devices Cooperation, Sunnyvale, CA, USA) using an excitation wavelength of 536 nm and an emission wavelength of 588 nm. The IC50 values were calculated by linear regression from the sigmoidal dose inhibition curves using SoftmaxPro software (Molecular Devices Cooperation, Sunnyvale, CA, USA). Melarsoprol was the standard drug.

[2] = Cytotoxicity against L6 cells (resazurin, 72 h); assay type: cell-based, rat
Description: Assays were performed in 96-well microtiter plates, each well containing 100 μL of RPMI 1640 medium supplemented with 1% L-glutamine (200 mM) and 10% fetal bovine serum, and 4 × 10^4 L-6 cells. Serial drug dilutions of eleven 3-fold dilution steps covering a range from 100 to 0.002 μg/mL were prepared. After 72 h of incubation the plates were inspected under an inverted microscope to assure growth of the controls and sterile conditions. 10 μL of a resazurin solution (prepared dissolving 12.5 mg resazurin in 100 mL double distilled water) was then added to each well and the plates incubated for another 2 h. The plates were read with a Spectramax Gemini XS microplate fluorometer using an excitation wavelength of 536 nm and an emission wavelength of 588 nm. The IC50 values were calculated by linear regression from the sigmoidal dose inhibition curves using SoftmaxPro software (Molecular Devices Cooperation, Sunnyvale, CA, USA). The reported IC50 values are the means of at least two separate experiments. Podophyllotoxin was used as control drug.

[3] = tested on: bloodstream forms of Trypanosoma brucei rhodesiense STIB 900 strain; design: method as in PMID 22859016; details: cited from earlier work
[4] = tested on: bloodstream forms of Trypanosoma brucei rhodesiense STIB 900 strain; test: Activity against Trypanosoma brucei rhodesiense (resazurin, 72 h); assay type: cell-based; details: at the highest test concentrations (20 μg/mL)
[5] = in vitro, bloodstream forms, mean of at least two replicates, read-out: IC50 T. b. rhodesiense
[6] = in vitro, bloodstream forms, mean of at least two replicates, read-out: IC50 T. b. rhodesiense (in parentheses)
[7] = rat skeletal myoblasts, mean of at least two replicates, read-out: IC50 Cytotoxicity L6 cells
[8] = rat skeletal myoblasts, mean of at least two replicates, read-out: IC50 Cytotoxicity L6 cells (in parentheses)
[9] = in vitro, read-out: IC50 against T. b. rhodesiense

For `CC[C@H]1OO[C@@H](CCC[C@]2(OC)C[C@H](C)[C@H](CC(=O)OC)OO2)C=C1C` [Compound 8], the IC50 [1, 5] was 0.16 µg/mL, the IC50 [1, 6] was 430 nM and the IC50 at 72 h ([2]; rat) was 12.6 µg/mL and 33.8 µM.

Compound `Nc1nc(N)nc(Nc2ccc([As]3SCC(CO)S3)cc2)n1` (stereo not drawn) [Melarsoprol, reference compound] has an IC50 ([1]; read-out: IC50 T. b. rhodesiense) of 0.002 µg/mL, an IC50 ([1]; read-out: IC50 T. b. rhodesiense (in parentheses)) of 5 nM and an IC50 at 72 h [2, 7] of 7.3 µg/mL. The IC50 at 72 h [2, 8] was 18.2 µM.

In the case of `CC/C=C(C)/C=C/CCC[C@]1(OC)C[C@H](C)[C@H](CC(=O)OC)OO1` [Manadoperoxide B (1), manadoperoxide B], the “IC50 T. b. rhodesiense” value ([3]; in vitro) is listed as 3 ng/mL (≈ 8.81 nM) and the IC50 ([3]; in vitro, read-out: IC50 T. b. rhodesiense (in parentheses)) is listed as 8.8 nM.

For `COC(=O)C[C@@H]1OO[C@@](CCCC=O)(OC)C[C@@H]1C` [Aldehyde 7], the IC50 [1, 5] was 1.21 µg/mL, the IC50 [1, 6] was 4420 nM and the IC50 at 72 h ([2]; rat) was 7.55 µg/mL and 27.6 µM.

For manadoperoxide K, the “IC50 against T. b. rhodesiense” value ([3]; in vitro) is listed as 87 ng/mL and the IC50 [3, 9] is listed as 240 nM.

With `CC/C=C(C)/C=C/CCC[C@]1(OC)C[C@H](C)[C@H](CC(=O)O)OO1` [Manadoperoxidic acid B (3), manadoperoxidic acid B] the IC50 [1, 5] was 1.87 µg/mL, the IC50 [1, 6] was 5740 nM and the IC50 at 72 h ([2]; rat) was 7.12 µg/mL and 21.8 µM.

In the case of peroxyplakoric ester B3, the “activity against T. b. rhodesiense (in words)” value ([3]; methyl linked at C-2 in place of C-4) is given as “almost completely lost”.

With `CC/C=C(C)\C=C\CCC[C@]1(OC)C[C@H](C)[C@H](CC(=O)OC)OO1` [12-Isomanadoperoxide B (2), 12-isomanadoperoxide B] the “selectivity index (SI)” value ([1]; IC50 against L6 cells divided by IC50 against the parasite) was 345, the IC50 [1, 5] was 0.011 µg/mL and the IC50 [1, 6] was 32 nM. For the same compound, the “trypanocidal activity relative to manadoperoxide B (1)” value ([1]; comparison of IC50 values against T. b. rhodesiense) was “four-fold reduction” and the IC50 at 72 h ([2]; rat) was 3.8 µg/mL and 11.2 µM.

In the case of manadoperoxide I, the “IC50 against T. b. rhodesiense” value ([3]; in vitro) is listed as 62 ng/mL and the IC50 [3, 9] is listed as 170 nM.

`COc1cc([C@@H]2c3cc4c(cc3[C@H](O)[C@H]3COC(=O)[C@H]23)OCO4)cc(OC)c1OC` [Podophyllotoxin, reference compound] gave an IC50 at 72 h [2, 7] of 0.004 µg/mL and an IC50 at 72 h [2, 8] of 0.0096 µM.

In the case of `CC/C=C(C)/C=C/CCCC1(O)C[C@H](C)[C@H](CC(=O)OC)O1` (stereo partly drawn) [Compound 6], the “antitrypanosomal activity (in words)” value [4] is reported as “inactive”, the IC50 [1, 5] is reported as greater than 20 µg/mL and the IC50 at 72 h ([2]; rat) is reported as 82.3 µg/mL and 252 µM.
